Here are results for 33 compounds from patent US4510140A, “Therapeutically effective ω-(4-(2-pyridyl)-piperazino)-alkanoylanilides” (priority 1981, dated 1985).

Like-named read-outs stand apart in the source and are kept apart here.

Series [1] can be described thus: LD50 determined in the mouse (C. S. Weil method). Also noted: unit not given here. To be noted: in vivo. The text has this: Accordingly, the present invention also features pharmaceutical compositions comprising a pharmaceutically effective amount of a compound having the structural formula (I) as above-defined, or a pharmaceutically acceptable salt thereof, in admixture with conventional pharmaceutically acceptable dileunt or carrier. Suitable such carriers and unit dosage amounts will be apparent to those skilled in this art. Compare, for example, Remington's Pharmaceutical Sciences, 4th Edition (1970). The LD50 of the alkanoylanilides according to the invention was determined in the mouse, both in C. S. Weil, following the method describedBiometrics, 8, 249 (1952). The results obtained were as follows, with the designating for the active compounds corresponding to those set forth in the following specific examples: […]

Series [2] has as its system passive cutaneous anaphylaxis. Put plainly: PCA Test: passive cutaneous anaphylaxis induced in the rat with homologous antibodies (Goose and Blair); inhibition of spot areas. Format: in vivo. To be noted: read-out: PCA Test - ED50 (inhibition of spot areas). The procedure: In order to evaluate the antianaphylactic activity of the subject novel compounds, the method of Goose and Blair was followed, in which passive cutaneous anaphylaxis was induced in the rat with homologous antibodies [Immunology, 16, 749 (1969)]. Female albino rats were immunized intramuscularly with egg albumin and intraperitoneally with Hemophylus pertussis vaccine.
Twelve days after treatment, the animals were bled and the sera thus obtained were injected intradermally into another group of rats. Twenty-four hours later, the animals were challenged with an i.v. solution of ovoalbumin and Evans blue dye, and sacrificed after 30 minutes. The test drugs were administered by different routes of administration and at different times before the challenge. Inhibition of spot areas (ED50) was determined.

Series [3] deals with bronchospasm induced by histamine. As to the kind of experiment: Antibronchospastic activity (Konzett and Rossler): inhibition of bronchospasm induced in anaesthetized guinea-pig by histamine. It counts as in vivo. To be noted: Cavia porcellus, iv, 1 min, read-out: ED75 (inhibition of histamine-induced bronchospasm). The procedure:
The antibronchospastic activity was determined according to the method of Konzett and Rossler [Arch. exp. Path. Pharmakol., 195, 71 (1940)], determining the inhibition of bronchospasm induced in anaesthetized guinea-pig by histamine. For this purpose, the bronchospasms were induced by administering intravenously to the animals 0.5-2.5 μg/Kg of hystamine. Inhibition (ED75) was determined one minute after the injection of the drug under test, and the results obtained are reported in the following Table III: […]

Where [4] appears, read: anaesthetized guinea-pig, i.v., histamine 0.5-2.5 μg/Kg i.v., one minute after injection of the drug.

Take `Cc1cccc(C)c1NC(=O)CN1CCN(c2ccccn2)CC1` [compound 1]: the LD50 in series [1] (ip) was determined as 0.9. The ED50 in series [2] (Rattus norvegicus, ip) amounted to 337 µmol/kg.
The corresponding values for `Cc1cc(C)c(C)c(NC(=O)CN2CCN(c3ccccn3)CC2)c1C` [compound 2] are 0.65 and 212 µmol/kg.
Consider `COc1ccc(NC(=O)CCN2CCN(c3ccccn3)CC2)cc1` [compound 3], for which the LD50 in series [1] (ip) came out at 0.71; in series [1] (po, os), 1.16. In addition, the median effective dose (ED50) in series [2] (Rattus norvegicus, ip) was found to be 19 µmol/kg. Moreover, the ED75 in series [3] was 0.24 µmol/kg.
For the compound `O=C(CCN1CCN(c2ccccn2)CC1)Nc1cccc([N+](=O)[O-])c1` [compound 4], the LD50 in series [1] (ip) was 0.42; in series [1] (po, os), 2.07. Moreover, the ED50 turned out to be 56 µmol/kg in series [2] (Rattus norvegicus, ip) and 68 µmol/kg in series [2] (Rattus norvegicus, po). Also, the ED75 in series [3] came to 0.37 µmol/kg.
Take `CC(=O)c1ccc(OCc2ccccc2)c(NC(=O)CCN2CCN(c3ccccn3)CC2)c1` [compound 5]: the LD50 was 0.91 in series [1] (ip) and 1.21 in series [1] (po, os). For the same compound, the 50% effective dose (ED50) in series [2] (Rattus norvegicus, ip) was 89 µmol/kg. For the same compound, in series [3], the ED75 came out at 3.89 µmol/kg.
As for `O=C(CCN1CCN(c2ccccn2)CC1)Nc1ccc([N+](=O)[O-])cc1` [compound 6], the LD50 came out at 0.47 in series [1] (ip) and 0.81 in series [1] (po, os). In addition, in series [2] (Rattus norvegicus, ip), the 50% effective dose (ED50) is 27 µmol/kg. For the same compound, the ED75 in series [3] was 0.94 µmol/kg.
In the case of `Nc1ccc(NC(=O)CCN2CCN(c3ccccn3)CC2)cc1` [compound 7], the LD50 in series [1] (ip) amounted to 1.11; in series [1] (po, os), 1.29. Besides, the ED50 came out at 27 µmol/kg in series [2] (Rattus norvegicus, ip) and 74 µmol/kg in series [2] (Rattus norvegicus, po). Also, in series [3], the ED75 turned out to be 0.02 µmol/kg.
Take `O=C(CCN1CCN(c2ccccn2)CC1)Nc1ccc(NC(=O)Nc2ccccc2)cc1` [compound 8]: the LD50 in series [1] (ip) is more than 2.25; in series [1] (po, os) it was more than 6.7.
Take `CCC(=O)Nc1ccc(NC(=O)CCN2CCN(c3ccccn3)CC2)cc1` [compound 11]: the LD50 in series [1] (ip) turned out to be 1.05; in series [1] (po, os), 1.53. In addition, the median effective dose (ED50) in series [2] (Rattus norvegicus, ip) was 160 µmol/kg. Moreover, the ED75 in series [3] was 0.23 µmol/kg.
As for `CCOC(=O)C(=O)Nc1ccc(NC(=O)CCN2CCN(c3ccccn3)CC2)cc1` [compound 12], the LD50 in series [1] (ip) was more than 2.35; in series [1] (po, os), more than 7.05. Further, the ED50 worked out at 180 µmol/kg in series [2] (po, rat, os) and 130 µmol/kg in series [2] (rat, ip). Further, the ED75 in series [3] (setting [4]) was 0.23 µmol/kg.
In the case of `CC(=O)c1ccc(NC(=O)CCN2CCN(c3ccccn3)CC2)cc1` [compound 13], the LD50 worked out at 0.48 in series [1] (ip) and 1.5 in series [1] (po, os). Moreover, in series [2] (Rattus norvegicus, ip), the ED50 stood at 104 µmol/kg. Besides, in series [3], the ED75 came out at 0.02 µmol/kg.
As for `CC(O)c1ccc(NC(=O)CCN2CCN(c3ccccn3)CC2)cc1` (stereo not shown) [compound 14], the LD50 in series [1] (ip) worked out at 3.25; in series [1] (po, os), 5.97. Moreover, the 50% effective dose (ED50) in series [2] (Rattus norvegicus, ip) is 32 µmol/kg; in series [2] (Rattus norvegicus, po), 106 µmol/kg. Further, in series [3], the ED75 worked out at 0.48 µmol/kg.
As for `Cc1cc(C)c(C)c(NC(=O)CCN2CCN(c3ccccn3)CC2)c1C` [compound 15], in series [1] (ip), the LD50 came to 0.57. In addition, the 50% effective dose (ED50) in series [2] (Rattus norvegicus, ip) stood at 19 µmol/kg; in series [2] (Rattus norvegicus, po), 26 µmol/kg. Moreover, the ED75 in series [3] amounted to 1.56 µmol/kg.
Consider `O=C(CCN1CCN(c2ccccn2)CC1)Nc1ccccc1` [compound 16], for which the LD50 in series [1] (ip) turned out to be 1.16; in series [1] (po, os) it was 1.35. Moreover, the ED50 in series [2] (Rattus norvegicus, ip) is 64 µmol/kg; in series [2] (Rattus norvegicus, po), 61 µmol/kg. For the same compound, in series [3], the ED75 was determined as 1.93 µmol/kg.
In the case of `Cc1ccccc1NC(=O)CCN1CCN(c2ccccn2)CC1` [compound 17], the LD50 in series [1] (ip) is 1.01; in series [1] (po, os) it was 1.58. In addition, the ED50 in series [2] (Rattus norvegicus, po) turned out to be 67 µmol/kg. In addition, the ED75 in series [3] is 0.47 µmol/kg.
In the case of `Cc1cccc(C)c1NC(=O)CCN1CCN(c2ccccn2)CC1` [compound 18], the LD50 in series [1] (ip) turned out to be 0.8. Also, the ED50 amounted to 81 µmol/kg in series [2] (Rattus norvegicus, ip) and 13 µmol/kg in series [2] (Rattus norvegicus, po). The ED75 in series [3] is 1.57 µmol/kg.
Regarding `CCOc1ccc(NC(=O)CCN2CCN(c3ccccn3)CC2)cc1` [compound 19], the LD50 in series [1] (ip) amounted to 0.69; in series [1] (po, os), 0.92. Besides, the ED50 in series [2] (Rattus norvegicus, po) is 54 µmol/kg. Also, the ED75 in series [3] is 0.14 µmol/kg.
Consider `O=C(CCN1CCN(c2ccccn2)CC1)Nc1ccc(O)cc1` [compound 20], for which the LD50 in series [1] (ip) was more than 2.5; in series [1] (po, os), 5.2. Moreover, the ED50 in series [2] (po, rat, os) turned out to be 170 µmol/kg; in series [2] (rat, ip), 120 µmol/kg. For the same compound, in series [3] (setting [4]), the ED75 turned out to be 0.49 µmol/kg.
On to `O=C(CCN1CCN(c2ccccn2)CC1)Nc1ccc(O)c([N+](=O)[O-])c1` [compound 21], for which the LD50 in series [1] (ip) was determined as 2.38; in series [1] (po, os), 3.74. The ED50 stood at 270 µmol/kg in series [2] (Rattus norvegicus, ip) and 160 µmol/kg in series [2] (Rattus norvegicus, po). Besides, the ED75 in series [3] turned out to be 1.1 µmol/kg.
As to `Nc1ccccc1NC(=O)CCN1CCN(c2ccccn2)CC1` [compound 22], the LD50 was determined as 3.2 in series [1] (ip) and 2.08 in series [1] (po, os). The median effective dose (ED50) in series [2] (Rattus norvegicus, po) amounted to 100 µmol/kg. The ED75 in series [3] is 1.63 µmol/kg.
On to `Nc1cccc(NC(=O)CCN2CCN(c3ccccn3)CC2)c1` [compound 23], for which the LD50 in series [1] (ip) was determined as 0.9; in series [1] (po, os), 0.85. For the same compound, in series [2] (Rattus norvegicus, po), the ED50 was 170 µmol/kg. The ED75 in series [3] worked out at 0.61 µmol/kg.
With `CC1CN(c2ccccn2)CCN1CCC(=O)Nc1ccc(N)cc1` (stereo not shown) [compound 24], the LD50 in series [1] (ip) worked out at 1.18; in series [1] (po, os), 2.97. For the same compound, the ED50 in series [2] (Rattus norvegicus, po) came to 39 µmol/kg. Besides, the ED75 in series [3] is 0.59 µmol/kg.
As to `COc1cccc(N2CCN(CCC(=O)Nc3ccc(N)cc3)CC2)n1` [compound 25], the LD50 in series [1] (ip) came to 0.53; in series [1] (po, os) it was 1.6. Moreover, the median effective dose (ED50) in series [2] (Rattus norvegicus, ip) is 110 µmol/kg; in series [2] (Rattus norvegicus, po) it was 55 µmol/kg. For the same compound, the ED75 in series [3] was determined as 0.4 µmol/kg.
In the case of `CC(=O)Nc1ccc(NC(=O)CCN2CCN(c3ccccn3)CC2)cc1` [compound 27], the LD50 in series [1] (po, os) was more than 6.81. The median effective dose (ED50) was 92 µmol/kg in series [2] (po, rat, os) and 120 µmol/kg in series [2] (rat, ip). Also, in series [3] (setting [4]), the ED75 came out at 0.97 µmol/kg.
Take `CNC(=O)Nc1ccc(NC(=O)CCN2CCN(c3ccccn3)CC2)cc1` [compound 28]: the LD50 in series [1] (ip) is more than 2.15; in series [1] (po, os), more than 6.5. Besides, the ED50 in series [2] (po, rat, os) worked out at 73 µmol/kg. The ED75 in series [3] (setting [4]) was found to be 0.29 µmol/kg.
Take `O=C(CCN1CCN(c2ccccn2)CC1)Nc1ccccc1[N+](=O)[O-]` [compound 29]: the LD50 in series [1] (ip) came to 2.08; in series [1] (po, os), 3.7. For the same compound, the ED75 in series [3] is 0.58 µmol/kg.
For the compound `COc1cccc(N2CCN(CCC(=O)Nc3ccc([N+](=O)[O-])cc3)CC2)n1` [compound 31], in series [1] (po, os), the LD50 stood at 4.39. Besides, the 50% effective dose (ED50) in series [2] (Rattus norvegicus, po) stood at 130 µmol/kg.
Compound `O=C(CCN1CCN(c2ccccn2)CC1)Nc1cc([N+](=O)[O-])cc([N+](=O)[O-])c1` [compound 32] registered an LD50 in series [1] (po, os) of 1.57. For the same compound, the ED75 in series [3] came out at 2.4 µmol/kg.
Compound `COc1cccc(N2CCN(CCC(=O)Nc3ccccc3[N+](=O)[O-])CC2)n1` [compound 34] yielded an LD50 in series [1] (po, os) of more than 7.1.
On to `O=C(CCN1CCN(c2ccccn2)CC1)Nc1cccc(C(F)(F)F)c1` [compound 37], for which the LD50 amounted to 0.56 in series [1] (ip) and 1.17 in series [1] (po, os).
As for `COc1cccc(N2CCN(CCC(=O)Nc3ccccc3N)CC2)n1` [compound 38], the LD50 in series [1] (ip) was 0.37; in series [1] (po, os), 0.67. Also, the ED50 in series [2] (Rattus norvegicus, po) came to 44 µmol/kg.
In series [1] (po, os), `CSc1ccc(NC(=O)CCN2CCN(c3ccccn3)CC2)cc1` [compound 42] showed an LD50 of more than 8.4.
Regarding `N#Cc1ccc(NC(=O)CCN2CCN(c3ccccn3)CC2)cc1` [compound 43], the LD50 in series [1] (ip) is 0.39; in series [1] (po, os), 0.62.
